Test [1] relates to NADH-specific D-ketopentose-oxidoreductase. The note with it: crude extract; cited from earlier work.
Test [2] has as its system NADPH-specific D-ketopentose-oxidoreductase. The note with it: crude extract; cited from earlier work.
Test [3] has the same test system. Kind of test: NADPH-specific D-ketopentose-oxidoreductase kinetic parameters. The class given is biochemical, P. ohmeri ATCC 20209. The following applies: NADP^+ added in excess, in vitro. From the text: As an illustration of its performances, the following tables indicate the enzyme activities involved in the arabitol metabolic pathway of Pichia ohmeri (Sophie […] Thesis, 1992) The Michaelis-Menten constants highlight the affinities of the NADH and NADPH-D-ketopentose-oxidoreductases for each substrate and the corresponding maximum velocities. [table] The Haldane relationship predicts in vivo enzyme kinetic behaviors. The inhibitory effect of NADP^+ on NADPH-specific D-ketopentose-oxidoreductase has been determined in vitro. The activity is 80% less when NADP^+ is added in excess.

The subject of test [4] is D-Ribulose-5-P 3-epimerase. The note with it: crude extract; cited from earlier work.
The subject of test [5] is D-Ribose-5-P keto-isomerase. The note with it: crude extract; cited from earlier work.
In another test the test system is Acid phosphatase. The following applies: crude extract; cited from earlier work.
Another test relates to Transketolase. The note with it: crude extract, cited from earlier work.

Where two headings read alike, the source gives them in different places.

The term Km denotes the concentration of substrate that gives half-maximal velocity. For `O=C(CO)[C@H](O)[C@H](O)CO` [D-Ribulose], in test [1], the Michaelis constant (Km) is 90 mM and the VM is recorded as 1 U/mg. In addition, in test [2], the Km was 72 mM and the VM was 3.4 U/mg.
Turning to `OC[C@@H](O)C(O)[C@H](O)CO` [D-Arabitol], the VM in test [2] was 0.8 U/mg.
Turning to `OC[C@@H](O)[C@@H](O)[C@@H](O)CO` [Ribitol], in test [1], the Km was 16 mM and the VM is recorded as 0.16 U/mg.
Take `NC(=O)c1ccc[n+]([C@@H]2O[C@H](COP(=O)([O-])OP(=O)(O)OC[C@H]3O[C@@H](n4cnc5c(N)ncnc54)[C@H](OP(=O)(O)O)[C@@H]3O)[C@@H](O)[C@H]2O)c1` [NADP^+]: the “inhibitory effect: activity less” value in test [3] came to 80%.
For the molecule `OC[C@@H](O)[C@H](O)[C@@H](O)CO` [Xylitol], the Km in test [1] is 7 mM. Besides, the figures for the VM in test [1] and in test [2] were 0.2 U/mg and 0.15 U/mg, respectively.
For the molecule `O=C(CO)[C@H](O)[C@H](O)COP(=O)(O)O` [D-Ribulose-5-P], the Michaelis constant (Km) in test [4] was 6.3 mM; in test [5], 0.35 mM; in the test with Acid phosphatase it was 4.3 mM. The results for the VM (in test [4]; in test [5]; with Acid phosphatase) were 3 U/mg, 1.8 U/mg and 0.65 U/mg, respectively.
For the molecule `O=C(CO)[C@@H](O)[C@H](O)CO` [D-Xylulose], in test [1], the Km is 5 mM and the VM is on record as 0.6 U/mg. In test [2], the VM is 1.5 U/mg.
For `O=C(CO)[C@@H](O)[C@H](O)COP(=O)(O)O` [D-Xylulose-5-P], the Michaelis-Menten constant (Km) in test [4] was 6.6 mM; in the test with Acid phosphatase, 16 mM; in the test on Transketolase (Transketolase (D-ribose-5-P)), 0.2 mM; with Transketolase (Transketolase (Erythrose-4-P)), 0.6 mM. Besides, the VM is given as 0.7 U/mg in test [4], 0.11 U/mg in the test with Acid phosphatase, 0.9 U/mg in the test on Transketolase (Transketolase (D-ribose-5-P)) and 1.45 U/mg in the test on Transketolase (Transketolase (Erythrose-4-P)).

The values are drawn from patent publication US10829742B2, “Production of xylitol from glucose by a recombinant strain” (ROQUETTE FRERES, priority 2014, dated 2020).
